In patent publication US20240400547A1, “2,6-PIPERIDINEDIONE COMPOUND AND APPLICATION THEREOF” (MEDSHINE DISCOVERY INC., priority 2021, published 2024):
Structures can show the parent of a compound that is named as a salt. Where two headings read alike, the source gives them in different places.

How the values were obtained:
OCI-LY10 = test: Antiproliferative effect in lymphoma cell line OCI-LY10 (CellTiter-Glo); format: cell-based, human; settings: OCI-LY10, 5 days; for IC50: Homo sapiens, 120 h
Experimental: Experimental purpose: The experiment aims to evaluate the inhibitory effects of the test compounds on cell proliferation in the diffuse large B-cell lymphoma (DLBCL) cell lines OCI-LY10 and TMD-8.
The tumor cell lines were cultured in a 37° C., 5% CO2 incubator under the above culture conditions. Regular passage, and cells in logarithmic growth phase were taken for plating.
• (1) Cells were stained with trypan blue and viable cells were counted. • (2) The cell concentration was adjusted to an appropriate concentration.
• (3) 100 μL of cell suspension per well was added to the culture plate as shown above. • (4) The culture plate was cultured overnight in a 37° C., 5% CO2 incubator with 100% relative humidity.
Preparation of stock solution storage plate with 1000 times the initial concentration of the compound: The compound was serially diluted with DMSO from the highest concentration to the lowest concentration. The solution was prepared as needed each time.
4. Preparation of 1000× Compound Working Solution and Cell Treatment with Compounds • (1) Preparation of the working solution with 5 times the initial concentration of the compound: For 3-fold dilution of the compound, 30 μL of the compound from a stock solution at 1000-fold concentration was taken, and 20 μL of DMSO was added to the subsequent wells. Then, 10 μL was transferred from one concentration to the next in sequence. For 5-fold dilution of the compound, 30 μL of the compound from a stock solution at 1000-fold concentration was taken, and 24 μL of DMSO was added to the subsequent wells. Then, 6 μL was transferred from one concentration to the next in sequence. 20 μL of DMSO was added to the vehicle control. The 1000-fold concentrated compound was diluted 200 times with culture medium, i.e., 1 μL of the 1000-fold diluted compound is added to 199 μL of culture medium, and the mixture was homogenized using a pipette. • (2) Compound addition: 25 μL of the 5-fold compound solution was added to the cell culture plate. • (3) The 96-well cell plate was returned to the incubator to culture OCI-LY10 (with either 3-fold or 5-fold dilution, incubated with compounds added for 5 days) and TMD-8 (with either 3-fold or 5-fold dilution, incubated with compounds added for 5 days).
The following steps were performed according to the instructions of Promega CellTiter-Glo luminescent cell viability assay kit (Promega-G7573). • (1) CellTiter-Glo buffer was melted and brought to room temperature. • (2) CellTiter-Glo substrate was brought to room temperature. • (3) CellTiter-Glo working solution was prepared by adding 10 mL of CellTiter-Glo buffer to a vial of CellTiter-Glo substrate to dissolve the substrate. • (4) The mixture was slowly vortexed and shaken to be fully dissolved. • (5) The cell culture plate was taken out and left for 30 minutes to equilibrate to room temperature. • (6) 60 μL of CellTiter-Go working solution was added per well (equal to half the volume of cell culture medium per well). The cell plate was wrapped in aluminum foil to be protected from light. • (7) The culture plate was shaken on an orbital shaker for 2 minutes to induce cell lysis. • (8) The culture plate was left at room temperature for 10 minutes to stabilize the luminescent signal. • (9) The luminescent signal was detected on a 2104 EnVision plate reader.
The inhibition rate (IIR) of the test compound was calculated using the following formula: IR (%)=(1−RLU compound/RLU vehicle control)*100%. The inhibition rates of compounds at different concentrations were calculated in Excel, and then GraphPad Prism software was used to plot inhibition curves and calculate relevant parameters, including minimum inhibition rate, maximum inhibition rate, and IC50.

[1] = Pharmacokinetic evaluation in mice; format: in vivo, C57BL/6N or CD-1 male mice; settings: for Vd / half-life / clearance / bioavailability: male, plasma; for Vd: read-out: Apparent volume of distribution; for half-life: read-out: Elimination half-life (converted); for clearance: read-out: Plasma clearance rate; for bioavailability: po, read-out: Bioavailability F
Excerpt: In this study, C57BL/6N or CD-1 male mice were selected as test animals, and LC/MS/MS method was used to quantify plasma concentrations of the test compound intravenously injected or gavage to mice at different time points, so as to evaluate the pharmacokinetic profile of the compounds of the present disclosure in mice.
C57BL/6N mice (male, 20 to 30 g, 7 to 10 weeks old, Beijing VitalRiver) or CD-1 mice (male, 20 to 35 g, 7 to 10 weeks old, Beijing VitalRiver).
• The test compounds, either as clear or suspension solutions, were administered intravenously through the tail vein to C57BL/6N mice or CD-1 mice (either fasted overnight or fed) (vehicle: 10% DMSO/10% solutol/80% H2O or 5% DMSO/10% solutol/85% H2O), or intragastrically administered to C57BL/6N mice or CD-1 mice (either fasted overnight or fed). For intravenous injection, blood 50 μL was collected via the cheek vein puncture at 0 h (pre-administration), 0.083, 0.25, 0.5, 1, 2, 4, 6, 8, and 24 h after administration, and placed in an anticoagulant tube added with heparin sodium. The mixture was thoroughly vortexed and mixed, and centrifuged at 6000 g for 3 minutes at 2-8° C. For oral administration, blood was collected via the cheek vein puncture at 0 h (pre-administration), 0.083, 0.25, 0.5, 1, 2, 4, 6, 8, and 24 h after administration, and placed in an anticoagulant tube added with heparin sodium. The mixture was thoroughly vortexed and mixed, and centrifuged at 6000 g for 3 minutes at 2-8° C. Plasma concentrations were determined by LC-MS/MS method, and relevant pharmacokinetic parameters were calculated using Phoenix WinNonlin8.2.0 pharmacokinetic software with non-compartmental model linear-log trapezoidal method.
• The test compounds, as clear solutions, were administered intravenously through the tail vein to CD-1 mice (fasted overnight) (vehicle: 10% DMSO/10% solutol/80% H2O or 5% DMSO/10% solutol/85% H2O), or intragastrically administered to CD-1 mice (fasted overnight). For intravenous injection, blood was collected via the saphenous vein puncture at 0 h (pre-administration), 0.083, 0.25, 0.5, 1, 2, 4, 8, and 24 h after administration, and placed in a EDTA-K2 anticoagulant tube. The mixture was thoroughly vortexed and mixed, and centrifuged at 3200 g for 10 minutes at 4° C. to obtain plasma. For oral administration, blood was collected via the saphenous vein puncture at 0 h (pre-administration), 0.083, 0.25, 0.5, 1, 2, 4, 8, and 24 h after administration, and placed in a EDTA-K2 anticoagulant tube. The mixture was thoroughly vortexed and mixed, and centrifuged at 3200 g for 10 minutes at 4° C. to obtain plasma. Plasma concentrations were determined by LC-MS/MS method, and relevant pharmacokinetic parameters were calculated using Phoenix WinNonlin 6.3 pharmacokinetic software with non-compartmental model linear-log trapezoidal method.

[2] = intragastric administration 10 mg/kg, experimental operation A, fed
[3] = intragastric administration 10 mg/kg, experimental operation B, fasted overnight
[4] = intravenous injection 2 mg/kg, experimental operation B, fasted overnight
[5] = CD-1, mouse, intravenous injection 2 mg/kg, experimental operation B, fasted overnight
[6] = CD-1, mouse, intragastric administration 10 mg/kg, experimental operation B, fasted overnight
[7] = intragastric administration 10 mg/kg, experimental operation A, fasted overnight
[8] = mouse, intravenous injection 2 mg/kg, experimental operation A, fasted overnight

SMILES | IC50 (OCI-LY10) [µM] | Area under drug-time curve (0-inf) [1, 3] [µM·h] | Peak concentration [1, 3] [µM] | Time to peak concentration [1, 3] [h] | Maximum inhibition rate (OCI-LY10) [%] | also measured
CC(C)(O)c1cc2nc([C@H]3CC[C@H](CN4CCN(CC(=O)Nc5ccc6c(ccc7onc(C8CCC(=O)NC8=O)c76)c5)CC4)CC3)sc2cc1NC(=O)c1cccc(C(F)(F)F)n1 (stereo partly drawn) [Formate of WX020] | 0.025 | – | – | – | 94.96 | –
O=C1CCC(c2noc3ccc4c(NC(=O)CN5CCN(C[C@H]6CC[C@H](n7cc(NC(=O)c8coc(-c9ccnc(NCC%10CC%10)c9)n8)c(C(F)F)n7)CC6)CC5)cccc4c23)C(=O)N1 (stereo partly drawn) [Hydrochloride of WX014] | 0.0137 | – | – | – | 94.54 | Area under drug-time curve (0-inf) [1, 2]: 4.47 µM·h; Peak concentration [1, 2]: 0.54 µM; Time to peak concentration [1, 2]: 1.00 h; Area under drug-time curve (0-inf) ([1]; intravenous injection 2 mg/kg, experimental operation A, fed): 5.40 µM·h
O=C1CCC(c2noc3ccc4c(NC(=O)C(F)(F)C5CCN(CC6CCC(n7cc(NC(=O)c8coc(-c9ccnc(NCC%10CC%10)c9)n8)c(C(F)F)n7)CC6)CC5)cccc4c23)C(=O)N1 (stereo not drawn) [Hydrochloride of WX018] | 0.00699 | 1.01 | 0.09 | 6.00 | 99.92 | Area under drug-time curve (0-inf) [1, 4]: 3.06 µM·h; Vd [1, 5]: 4.39 L/kg; half-life [1, 5]: 5.22 h; clearance [1, 5]: 0.708 L/h/kg; bioavailability [1, 6]: 6.59%
O=C1CCC(c2noc3cc(NC(=O)CN4CCN(C[C@H]5CC[C@H](n6cc(NC(=O)c7coc(-c8ccnc(NCC9CC9)c8)n7)c(C(F)F)n6)CC5)CC4)ccc23)C(=O)N1 (stereo partly drawn) [Hydrochloride of WX025] | 0.0244 | – | – | – | 97.39 | –
O=C1CCC(c2coc3cc(NC(=O)CN4CCN(C[C@H]5CC[C@H](N6CC(NC(=O)c7coc(-c8ccnc(NCC9CC9)c8)n7)C(C(F)F)N6)CC5)CC4)ccc23)C(=O)N1 (stereo partly drawn) [Hydrochloride of WX002] | 0.192 | 2.00 | 0.64 | 1.00 | 63.27 | –

Now from value to molecule, other results behind:

IC50 (OCI-LY10) [µM] | Area under drug-time curve (0-inf) [1, 3] [µM·h] | Peak concentration [1, 3] [µM] | Time to peak concentration [1, 3] [h] | SMILES | Maximum inhibition rate (OCI-LY10) [%] | also measured
– | 5.07 | 0.65 | 4.00 | CC(C)(O)c1cc2nc(C3CCC(CN4CCN(CC(=O)Nc5cccc6c5ccc5onc(C7CCC(=O)NC7=O)c56)CC4)CC3)sc2cc1NC(=O)c1cccc(C(F)(F)F)n1 (stereo not drawn) [Formate of WX017] | – | Area under drug-time curve (0-inf) [1, 4]: 3.17 µM·h; Vd [1, 5]: 2.59 L/kg; half-life [1, 5]: 2.32 h; clearance [1, 5]: 0.732 L/h/kg; bioavailability [1, 6]: 31.9%
0.0853 | – | – | – | O=C1CCC(c2noc3c(NC(=O)CN4CCN(C[C@H]5CC[C@H](n6cc(NC(=O)c7coc(-c8ccnc(NCC9CC9)c8)n7)c(C(F)F)n6)CC5)CC4)cccc23)C(=O)N1 (stereo partly drawn) [Hydrochloride of WX028] | 99.01 | –
0.017 | – | – | – | O=C1CCC(c2coc3ccc4c(NC(=O)CN5CCN(C[C@H]6CC[C@H](n7cc(NC(=O)c8coc(-c9ccnc(NCC%10CC%10)c9)n8)c(C(F)F)n7)CC6)CC5)cccc4c23)C(=O)N1 (stereo partly drawn) [Trifluoroacetate of WX011] | 93.42 | Area under drug-time curve (0-inf) [1, 7]: 5.00 µM·h; Peak concentration [1, 7]: 0.45 µM; Time to peak concentration [1, 7]: 1.67 h; Area under drug-time curve (0-inf) ([1]; intravenous injection 2 mg/kg, experimental operation A, fasted overnight): 15.31 µM·h; Vd [1, 8]: 1.8 L/kg; half-life [1, 8]: 9.45 h; clearance [1, 8]: 0.166 L/h/kg; bioavailability ([1]; mouse, intragastric administration 10 mg/kg, experimental operation A, fasted overnight): 6.53%
